Results: patent US8535897B2, “Assays for non-apoptotic cell death and uses thereof” (The Trustees of Columbia University in the City of New York, priority 2006, dated 2013)

Assays:
Format in all cases: cell-based, human
[1] = tested on: cytochrome c; test: Cytochrome c release from mitochondria; settings: BJ-TERT/LT/ST/RAS^V12; staurosporine 1 μM or erastin 20 μg/mL for 6 h
Description: BJ-TERT/LT/ST/RAS^V12 cells were seeded in polystyrene 100×20 mm dishes in 10 ml media. After overnight incubation at 37° C. with 5% CO2, the cells were treated with nothing (NT), staurosporine (ST, 1 μM) or erastin (20 μg/mL) for 6 h, washed with 10 mL ice-cold PBS and lysed by passage through a 25-gauge needle (five strokes). Cell lysates were centrifuged at 1850 rpm for 5 min at 4° C. to remove the nuclear fraction. Mitochondria were removed from the soluble cytosolic fraction by pelleting at 10,000 rpm. Supernatant and mitochondrial pellets were solubilized in SDS-PAGE loading buffer and analyzed by western blot using anti-cytochrome c and pan-VDAC antibodies and IR-dye-linked secondary antibodies. […] Fluorescence was detected on a LI-COR Odyssey infrared scanner.
(a) BJ-TERT/LT/ST/RAS^V12 cells were treated with 9 μM erastin A1 for the indicated length of time, and the number of viable cells determined. […] Red fluorescence resulting from reduction of alamar blue was detected on a Victor3 platereader. […] (e) The number of viable cells was quantified under each condition using a hemacytometer. […] BJ-TERT/LT/ST/RAS^V12 (shown in histogram plots, and in line graph as dark diamonds) or BJ-TERT cells (shown in line graph only, light circles) were treated with 4.6-μM erastin A1 and the level of intracellular oxidative species determined. […]

[2] = tested on: BJ-TERT/LT/ST/RASV12 cells; test: Nuclear morphology, fluorescence microscopy (Hoechst 33342)
Description: DNA was stained used Hoechst 33342.
To characterize the type of cell death induced by erastin, the effect of erastin was tested alongside camptothecin and staurosporine, which induce apoptotic cell death^39. Apoptosis is characterized by alterations in nuclear morphology, including pyknosis, karyorhexis and margination of chromatin^93. Nuclear morphology of camptothecin-treated and erastin-treated BJ-TERT/LT/ST/RAS^V12 cells was monitored using fluorescence microscopy. […] Apoptosis-inducing compounds (staurosporine and/or camptothecin) were tested alongside erastin in all of these assays to confirm the functionality of the assay. […] Therefore, in certain aspects the invention provides a genotype-selective anti-tumor agent which induces cell death via a non-apoptotic mechanism of oxidative cell death.

[3] = tested on: BJ-TERT/LT/ST/RASV12 cells; test: Annexin V staining; settings: erastin 9 μM; camptothecin 1 μM
Description: The percentage of cells in the indicated M1 region were 6%, 6%, and 38% in untreated, erastin-treated (9 μM), and camptothecin-treated (1 μM), respectively.

[4] = tested on: PARP1; test: PARP1 cleavage, western blot; settings: BJ-TERT/LT/ST/RAS^V12; staurosporine 1 μM 6 h, camptothecin 1 μM 18 h, erastin 20 μg/mL
Description: BJ-TERT/LT/ST/RAS^V12 tumor cells were seeded in six-well dishes, incubated overnight at 37° C. with 5% CO2 and were treated with nothing (NT), staurosporine (ST, 1 μM) for 6 h, camptothecin (C, 1 μM) for 18 h, or erastin (20 μg/mL) for the indicated time, lysed and analyzed by western blot with an anti-PARP1 antibody. A relatively high concentration of erastin was used to ensure loss of PARP cleavage was not due to a concentration-dependent effect.
For western blots, medium was aspirated, and each dish was washed twice with 10 mL of ice-cold PBS. Cells were lysed with 200 μL of buffer (50 mM HEPES, 40 mM NaCl, 2 mM EDTA, 0.5% Triton-X, 1.5 mM sodium orthovanadate, 50 mM NaF, 10 mM Na Pyrophosphate, 10 mM Na B-glycerophosphate and protease inhibitor tablet, pH 7.4). […]

Structure (SMILES)	cytochrome c release from mitochondria [1]	fragmented nuclei, of total nuclei ([2]; Hoechst 33342)	nuclear morphology ([2]; fluorescence microscopy)	percentage of cells in the M1 region (Annexin V staining) [3] [%]	PARP1 cleavage [4]
CN[C@@H]1C[C@H]2O[C@@](C)([C@@H]1OC)n1c3ccccc3c3c4c(c5c6ccccc6n2c5c31)C(=O)NC4 [staurosporine]	released from mitochondria	–	–	–	–
CC[C@@]1(O)C(=O)OCc2c1cc1n(c2=O)Cc2cc3ccccc3nc2-1 [camptothecin]	–	10%-20%	karyorhexis and margination of chromatin were visible	38	degraded
